In PMC9428149, “Tackling recalcitrant Pseudomonas aeruginosa infections in critical illness via anti-virulence monotherapy” (Nature Communications, 2022):
Values joined by “and” are separate entries in the source; they are usually repeats but may differ in a detail not shown here. Equal entries are not always repeated. “Also recorded” adds a separate entry of the source. Where two headings read alike, the source gives them in different places.

Key:
[1] = system: A549 cells; test: MTT cytotoxicity, A549; type: cell-based, human; conditions: for Cell viability (MTT) relative to Vehicle: A549, replicates
Method: (§1) For the determination of cytotoxicity, cell viability was determined using the MTT (3-[4, 5-dimethyl-2-thiazolyl]−2, 5-diphenyl-2H-tetrazolium bromide) assay in the presence and absence of compound (D88). […] The cells were then treated with either vehicle or different concentrations of D88 (10, 20, 30, 40, and 50 µM) for 24 h at 37 °C and 5% CO2. After 24 h, the cells were washed three times with PBS and were incubated in 200 μL PBS containing 200 μg mL^−1 MTT (Sigma-Aldrich) in a 96-well culture plate for 2 h at 37 °C and 5% CO2. Following incubation, the supernatant was discarded, and the cells were lysed in 95% isopropanol and 5% formic acid.

[2] = system: IL-6; test: Ileal IL-6 ELISA; type: in vivo, mouse; conditions: burn + PA14 + D88, 22 h
Method: (§2) For the group supplemented with our MvfR-inhibiting compound (D88), mice received five subcutaneous injections (at the nape of the animals) at 1, 4, 8, 12, and 18 h post-BI, at a dose of 24 mg kg^−1 body weight. D88 was prepared in a 40% Captisol vehicle. Control groups received equivalent doses of 40% Captisol vehicle.
Distal ileal TNF-α and IL-6 were quantified using the mouse TNF-α enzyme-linked immunosorbent assay [ELISA] Ready-SET-Go kit (eBioscience; San Diego, CA, USA) and the Mouse IL-6 DuoSet ELISA (R&D Systems) respectively, as per the manufacturer’s instructions.

[3] = system: MvfR-regulated small molecules at the site of infection; test: Production of HHQ, PQS, HQNO, 2-AA and DHQ in vivo; parameters: species or system mouse
Method: as §2
To measure the production of HHQ, PQS, HQNO, 2-AA, and DHQ in vivo, underlying muscle from the site of infection was collected at 12 h and 22 h post-infection, and the small molecules were extracted by homogenizing them immediately in 1 mL sterile PBS as above. A 500 μL of sample was mixed with an equal volume of methanol containing 10 ppm of HHQ-D4 and 20 ppm of PQS-D4, spun down for 5 min, and 700 μL of supernatant were put in glass vials. Liquid chromatography-mass spectrophotometry ([…]) analysis was performed as described above and in[66].

[4] = system: RAW 264.7 cells; test: MTT cytotoxicity, RAW 264.7; type: cell-based, mouse; conditions: for Cell viability (MTT) relative to Vehicle: RAW 264.7, replicates
Method: as §1

[5] = system: claudin-1; test: Tight junction claudin-1 immunofluorescence, distal ileum; type: in vivo, mouse;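 on Claudin-1 immunofluorescence quantification (Supplimentary Figure 9): fluorescence intensity in arbitrary units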
Method: as §2
Samples of distal ileum fixed with 4% paraformaldehyde were cut in sections and mounted on microscope slides. After deparaffinization and antigen retrieval (Antigen Retrieval reagent; R&D Systems, Minneapolis, MN, USA), tissue sections were immersed in PBS/0.1 tween for 10 min and were blocked by Normal Goat Serum. They were then incubated with primary antibody rabbit polyclonal anti-claudin-1 (Catalog# 71-7800; final concentration, 1:100; Invitrogen, Rockford, IL, USA) overnight in a humid chamber at 4 °C. The sections were washed three times with PBS and secondary antibody goat anti-rabbit (Catalog# ab150061; final concentration: 1:500; Abcam, Cambridge, MA, USA) and DAPI (Catalog# ab228549; Abcam, Cambridge, MA, USA) were added, and incubated 1 h at room temperature. The sections were then washed three times with PBS, dried, and mounted, and images were collected using a confocal microscope (Nikon ECLIPSE Ti2; NIS-Elements AR 5.21.03; Nikon Instruments Inc., Tokyo, Japan).

[6] = DMPK of D88 in mice (plasma); type: in vivo, mouse; conditions: for half-life: read-out: half-life (T ½) (converted)
Method: Experiments were conducted by Aptuit (Verona) S.rl, an Evotec Company in Italy. Six weeks old male CD-1 mice were obtained from Charles River Laboratories, Italy. Mice were maintained on a 12 h light cycle with ad libitum access to rodent feed and water.
Healthy animals received IV 1.0 mg kg^−1 or SC administration of the 10.2 mg kg^−1 in homogeneous suspension in 0.5 % HPMC in water at the volume of 1.7 mL kg^−1. Following administration, blood samples were collected under deep isoflurane anesthesia from the cava vein of each mouse into tubes with K3EDTA, thoroughly but gently mixed, and placed on wet ice. Within 0.5 h of collection, blood was centrifuged (2500 g for 10 min at 4 °C) and within 0.5 h, aliquots of plasma were transferred into appropriately labeled sample tubes. A first 20 µL aliquot were mixed with 80 µL of Hepes 0.1 N. A second 5 µL aliquot of plasma was added to a well plate for urea quantification without dilution. Plasma samples were processed using a method based on protein precipitation with acetonitrile followed by HPLC/MS-MS analysis with an optimized analytical method.

[7] = system: Hep G2 cells; test: MTT cytotoxicity, Hep G2; type: cell-based, human; conditions: for Cell viability (MTT) relative to Vehicle: Hep G2, replicates
Method: as §1

[8] = target: MvfR binding to the pqsA promoter (Pseudomonas aeruginosa, UniProt Q9I4X0); type: cell-based; conditions: for MvfR binding to the pqsA promoter (ChIP-qPCR): D88 +, Figure 5c, replicates
MvfR binding to the pqsA promoter, sequence (Q9I4X0 whole entry, looked up): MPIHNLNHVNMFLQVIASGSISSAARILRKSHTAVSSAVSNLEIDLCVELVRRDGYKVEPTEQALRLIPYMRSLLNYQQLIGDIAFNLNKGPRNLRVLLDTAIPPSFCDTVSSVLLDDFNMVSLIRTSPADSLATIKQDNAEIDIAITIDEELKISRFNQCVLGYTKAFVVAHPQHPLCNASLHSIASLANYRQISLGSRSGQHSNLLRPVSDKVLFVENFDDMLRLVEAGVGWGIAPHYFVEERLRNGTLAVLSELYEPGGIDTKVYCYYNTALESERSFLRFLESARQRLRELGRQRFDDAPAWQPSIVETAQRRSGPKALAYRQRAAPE

[9] = system: PA14 burn-site infection; test: In vivo intestinal permeability (FITC-dextran) in burn-site infection model; parameters: species or system mouse
[10] = D88 Treated 12h, site of infection, single mice, Figure 6d
[11] = D88 Treated 22h, site of infection, single mice, Figure 6d
[12] = male, CD-1, mouse, 1 mg/kg IV, plasma
[13] = male, CD-1, mouse, 10 mg/kg SC, plasma

With `N#Cc1ccc(NC(=O)C(F)C(=O)Nc2ccc(Oc3ccccc3)cc2)cc1` (centres unmarked) [D88] the cell viability ([1]; A549, 10-50 µM, 24 h) was “None of the used compound concentrations exerted any cytotoxic effect; also recorded: no significant changes in cell viability”, the “Cell viability (MTT) relative to Vehicle” value ([1]; 10 μM) was 104.92 and 112.79 and 105.24 and 97.24 and 88.17 and the “Cell viability (MTT) relative to Vehicle” value ([1]; 20 μM) was 104.85 and 98.03 and 95.15 and 98.27 and 93.91. For the same compound, the “Cell viability (MTT) relative to Vehicle” value ([1]; 30 μM) was 88.06 and 91.37 and 110.19 and 88.29 and 118.10, the “Cell viability (MTT) relative to Vehicle” value ([1]; 40 μM) was 104.24 and 86.59 and 104.97 and 101.16 and 96.70 and the “Cell viability (MTT) relative to Vehicle” value ([1]; 50 μM) was 95.15 and 105.16 and 99.77 and 98.12. The “ileal IL-6 level” value [2] was “marked decrease”, the “levels of HHQ, PQS, HQNO, 2-AA and DHQ at the site of infection” value ([3]; 12 h post-infection) was “strong inhibitory efficacy” and the “levels of HHQ, PQS, HQNO, 2-AA and DHQ at the site of infection” value ([3]; 22 h post-infection) was “complete abolishment”. The DHQ [3, 10] was 0.0000, the HQNO [3, 10] was 0.0000 and the 2-AA [3, 11] was 0.0000. For the same compound, the DHQ [3, 11] was 0.0000, the cell viability ([4]; RAW 264.7, 10-50 µM, 24 h) was “None of the used compound concentrations exerted any cytotoxic effect; also recorded: no significant changes in cell viability” and the “Cell viability (MTT) relative to Vehicle” value ([4]; 10 μM) was 106.22 and 99.08 and 96.63 and 98.82 and 101.11 and 88.19. The “Cell viability (MTT) relative to Vehicle” value ([4]; 20 μM) was 109.67 and 80.39 and 97.97 and 112.02 and 105.97 and 95.04, the “Cell viability (MTT) relative to Vehicle” value ([4]; 30 μM) was 93.49 and 78.32 and 83.19 and 78.26 and 102.67 and 94.83 and the “Cell viability (MTT) relative to Vehicle” value ([4]; 40 μM) was 110.52 and 98.03 and 98.54 and 91.97 and 90.51 and 93.01. The “Cell viability (MTT) relative to Vehicle” value ([4]; 50 μM) was 100.26 and 92.62 and 78.32 and 79.67 and 99.66 and 96.62, the “Claudin-1 immunofluorescence quantification (Supplimentary Figure 9)” value ([5]; PA14+D88 group, compare Sham, PA14+Vehicle, ΔmvfR, individual measurements) was 148.508 and 162.001 and 157.541 and 137.39 and 152.028 and 182.597 and 148.327 and 116.923 and 109.707 and 109.463 and the “claudin-1 staining fluorescence intensity” value ([5]; ileum, PA14 infected + D88, 22 h) was 142.48 AUs. The Clast ([6]; 1 mg/kg IV, plasma) was 0.0142 µg/mL, the Clast ([6]; 10 mg/kg SC, plasma) was 0.0666 µg/mL and the “Concentration” value ([6]; IV Injection 1mg/kg, Time 0.08 h, individual animals, 1 mg/kg) was 0.648 µg/mL and 1.15 µg/mL and 1.46 µg/mL. For the same compound, the “Concentration” value ([6]; IV Injection 1mg/kg, Time 0.33 h, individual animals, 1 mg/kg) was 0.21 µg/mL and 0.298 µg/mL and 0.486 µg/mL, the “Concentration” value ([6]; IV Injection 1mg/kg, Time 0.67 h, individual animals, 1 mg/kg) was 0.0771 µg/mL and 0.131 µg/mL and the “Concentration” value ([6]; IV Injection 1mg/kg, Time 1 h, individual animals, 1 mg/kg) was 0.0109 µg/mL and 0.0258 µg/mL and 0.0574 µg/mL. For the same compound, the “Concentration” value ([6]; SC Injection 10mg/kg, Time 0.08 h, individual animals, 10 mg/kg) was 0.491 µg/mL and 0.6 µg/mL and 0.954 µg/mL and 1.25 µg/mL, the “Concentration” value ([6]; SC Injection 10mg/kg, Time 0.33 h, individual animals, 10 mg/kg) was 0.712 µg/mL and 1.02 µg/mL and 1.06 µg/mL and 1.59 µg/mL and the “Concentration” value ([6]; SC Injection 10mg/kg, Time 0.67 h, individual animals, 10 mg/kg) was 0.581 µg/mL and 0.875 µg/mL and 0.94 µg/mL and 1.19 µg/mL. For the same compound, the “Concentration” value ([6]; SC Injection 10mg/kg, Time 1 h, individual animals, 10 mg/kg) was 0.513 µg/mL and 0.854 µg/mL and 0.838 µg/mL and 1.07 µg/mL, the “Concentration” value ([6]; SC Injection 10mg/kg, Time 2 h, individual animals, 10 mg/kg) was 0.746 µg/mL and 0.683 µg/mL and 0.744 µg/mL and the “Concentration” value ([6]; SC Injection 10mg/kg, Time 3.8 h, individual animals, 10 mg/kg) was 0.0905 µg/mL and 0.323 µg/mL and 0.48 µg/mL and 0.304 µg/mL. The “Concentration” value ([6]; SC Injection 10mg/kg, Time 6 h, individual animals, 10 mg/kg) was 0.0219 µg/mL and 0.0638 µg/mL and 0.101 µg/mL and 0.0797 µg/mL, the concentration at 0.67 h ([6]; male, CD-1, mouse, plasma, iv, 1 mg/kg, IV Injection 1mg/kg, Time 0.67 h, individual animals) was 0.0764 µg/mL and the concentration at 2 h ([6]; male, CD-1, mouse, plasma, iv, 1 mg/kg, IV Injection 1mg/kg, Time 2 h, individual animals) was 0.0059 µg/mL. For the same compound, the concentration at 2 h ([6]; male, CD-1, mouse, plasma, sc, 10 mg/kg, SC Injection 10mg/kg, Time 2 h, individual animals) was 0.443 µg/mL, the Cmax [6, 12] was 1.09 µg/mL and the Tmax [6, 12] was 4.8 min. The half-life [6, 12] was 16.2 min, the Cmax [6, 13] was 1.1 µg/mL and the Tmax [6, 13] was 19.8 min. For the same compound, the half-life [6, 13] was 75 min, the cell viability ([7]; Hep G2, 10-50 µM, 24 h) was “None of the used compound concentrations exerted any cytotoxic effect; also recorded: no significant changes in cell viability” and the “Cell viability (MTT) relative to Vehicle” value ([7]; 10 μM) was 91.32 and 107.98 and 99.70 and 117.35 and 109.09 and 100.19. The “Cell viability (MTT) relative to Vehicle” value ([7]; 20 μM) was 95.30 and 117.21 and 108.45 and 112.28 and 97.33 and 109.75, the “Cell viability (MTT) relative to Vehicle” value ([7]; 30 μM) was 92.58 and 115.65 and 108.60 and 112.37 and 92.39 and 103.33 and the “Cell viability (MTT) relative to Vehicle” value ([7]; 40 μM) was 107.42 and 114.93 and 105.81 and 114.05 and 107.35 and 99.51. For the same compound, the “Cell viability (MTT) relative to Vehicle” value ([7]; 50 μM) was 91.19 and 110.82 and 100.96 and 118.91, the “reduction of MvfR binding to the pqs operon promoter” value ([8]; 50 µM D88, vs control) was ~ 80% and the “PQS-mediated increase in MvfR binding” value ([8]; D88 50 µM + PQS 38 µM) was “significantly decreased”. For the same compound, the “MvfR binding to the pqsA promoter (ChIP-qPCR)” value ([8]; PQS +) was 4.271 and 2.782 and 2.485, the “MvfR binding to the pqsA promoter (ChIP-qPCR)” value ([8]; PQS −) was 1.532 and 0.7796 and 1.309 and the “mean FITC-dextran in serum” value ([9]; burn + PA14 infection, D88 24 mg kg^−1 SC x5, 22 h) was 2759 ng/mL. For the same compound, the “mean FITC-dextran in serum” value ([9]; burn alone without infection, D88-treated, 22 h) was 850 ng/mL and the intestinal permeability status ([9]; mvfR mutant-infected mice treated with D88 vs no treatment or vehicle) was “no difference in the intestinal permeability status”.
